Patent US6812235B2, “Beta-alanine derivatives and their use as receptor anatgonists” (Fujisawa Pharmaceutical Co., Ltd., priority 2000, dated 2004)
pIC50: −log10 of the molar value.

Tested on: platelet aggregation induced by ADP in platelet rich plasma (PRP)
Experiment: Effect on platelet aggregation induced by adenosine diphosphate (ADP)
Type: cell-based
Settings: human PRP 3×10^8 platelets/ml; test compound in water, 2 minutes at 37° C.; ADP final 2.5 μM; aggregometer; read-out: IC50 (inhibition of ADP-induced platelet aggregation)
Experimental: Test: Effect on Platelet Aggregation Induced by Adenosine Diphosphate (ADP)
Platelet rich plasma (PRP) which contains 3×10^8 platelets/ml was prepared from human blood. To the 225 μl of PRP, 25 μl of the solution of the test compound in water was added, and then stirred for 2 minutes at 37° C. To the solution 5 μl of ADP (final 2.5 μM) was added as an aggregation inducer. Aggregation was measured by using an aggregometor (NBS HEMA-TRACER 801). Activity of […] (test compound) was expressed as IC50 value, i.e., dose required for […] of platelet aggregation.

Work on `COC(=O)C(=O)N[C@@H](CNC(=O)[C@@H]1CCCN(C(=O)CCC2CCNCC2)C1)C(=O)O` [Example 25, N-[(3R)-1-{3-(4-piperidyl)-propionyl}-3-piperidylcarbonyl]-2(S)-methoxyoxalylamino-β-alanine] yielded a pIC50 of 7.07.
